Like-named read-outs stand apart in the source and are kept apart here. Numbered stars: 1 amine (or outer) side, 2 acyl side, 3 side chain; on linkers, the order of the positions; unused ones are H or OH. Bridge positions count the residues as written; N and C are the ends. Peptide text beside a SMILES is read from it. * marks the point of attachment. X1 = O=C(O)CN1CCN(CC(=O)O)CCN(CC(=O)N2CCN(Cc3cc(C[*:1])cc(C[*:2])c3)CC2)CCN(CC(=O)O)CC1; Hexanoyl = CCCCCC(=O)*
What was measured:
PDE4D2 (h) = PDE4D2 (h) (Homo sapiens, UniProt Q08499); experiment: biochemical; conditions: read-out: % Inhibition of Specific Binding
Sequence of PDE4D2 (h) (Q08499 303-809): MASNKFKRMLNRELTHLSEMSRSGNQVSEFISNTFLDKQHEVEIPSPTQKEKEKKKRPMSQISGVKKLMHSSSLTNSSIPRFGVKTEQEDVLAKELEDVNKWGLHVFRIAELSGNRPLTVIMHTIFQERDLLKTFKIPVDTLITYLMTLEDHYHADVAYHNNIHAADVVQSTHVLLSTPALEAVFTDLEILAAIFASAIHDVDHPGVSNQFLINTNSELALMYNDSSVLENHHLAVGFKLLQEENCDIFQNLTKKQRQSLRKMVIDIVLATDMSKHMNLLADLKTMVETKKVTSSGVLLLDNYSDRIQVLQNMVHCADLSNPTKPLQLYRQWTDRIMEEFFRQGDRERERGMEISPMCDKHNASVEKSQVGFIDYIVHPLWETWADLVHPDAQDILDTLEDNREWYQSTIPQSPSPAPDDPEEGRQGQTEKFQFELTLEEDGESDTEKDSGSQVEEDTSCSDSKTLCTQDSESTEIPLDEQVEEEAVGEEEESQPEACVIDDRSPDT

Cathepsin V = Cathepsin V (Homo sapiens, UniProt O60911); experiment: biochemical; conditions: read-out: Percentage inhibition (%)
Sequence of Cathepsin V (O60911 114-334, species assumed): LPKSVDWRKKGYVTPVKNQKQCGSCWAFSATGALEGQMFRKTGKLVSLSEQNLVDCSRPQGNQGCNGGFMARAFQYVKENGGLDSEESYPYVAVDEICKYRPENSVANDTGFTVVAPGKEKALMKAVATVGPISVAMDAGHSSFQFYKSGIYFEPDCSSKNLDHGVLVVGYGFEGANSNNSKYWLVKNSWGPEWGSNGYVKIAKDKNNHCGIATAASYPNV

[1] = system: serine protease NS3 (a.a. 3-181) from Hepatitis C virus genotype 1b (mutant D168V)
Renin = target: T1, Renin (Homo sapiens, UniProt P00797); experiment: biochemical; conditions: read-out: Percentage inhibition (%)
T1 sequence (P00797 67-406): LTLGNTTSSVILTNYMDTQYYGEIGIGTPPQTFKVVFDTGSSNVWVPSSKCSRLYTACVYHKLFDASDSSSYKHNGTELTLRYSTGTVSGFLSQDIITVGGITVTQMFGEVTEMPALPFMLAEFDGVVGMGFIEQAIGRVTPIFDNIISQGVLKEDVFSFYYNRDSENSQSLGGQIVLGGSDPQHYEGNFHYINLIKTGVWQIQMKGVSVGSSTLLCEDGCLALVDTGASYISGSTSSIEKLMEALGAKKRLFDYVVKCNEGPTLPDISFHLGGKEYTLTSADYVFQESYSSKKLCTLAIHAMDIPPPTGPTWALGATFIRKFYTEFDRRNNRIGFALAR

Lck kinase (h) = Lck kinase (h) (Homo sapiens, UniProt P06239); experiment: biochemical; conditions: read-out: % Inhibition of Specific Binding
Sequence of Lck kinase (h) (P06239 whole entry): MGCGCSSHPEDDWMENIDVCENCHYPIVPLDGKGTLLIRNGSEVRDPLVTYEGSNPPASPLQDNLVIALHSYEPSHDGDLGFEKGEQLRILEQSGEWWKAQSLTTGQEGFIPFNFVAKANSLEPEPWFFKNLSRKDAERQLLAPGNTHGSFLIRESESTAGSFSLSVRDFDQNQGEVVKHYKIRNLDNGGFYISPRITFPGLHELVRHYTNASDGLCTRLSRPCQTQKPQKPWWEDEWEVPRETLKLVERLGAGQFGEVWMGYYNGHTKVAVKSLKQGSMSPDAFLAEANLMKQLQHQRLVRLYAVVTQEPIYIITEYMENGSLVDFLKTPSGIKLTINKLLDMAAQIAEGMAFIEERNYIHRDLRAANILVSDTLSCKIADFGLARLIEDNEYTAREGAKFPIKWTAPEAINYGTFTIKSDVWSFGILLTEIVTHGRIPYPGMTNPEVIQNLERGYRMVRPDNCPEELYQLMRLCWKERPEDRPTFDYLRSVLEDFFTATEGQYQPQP

beta 1 (h) = beta 1 (h) (Homo sapiens, UniProt P08588); experiment: biochemical; conditions: read-out: % Inhibition of Specific Binding
Sequence of beta 1 (h) (P08588 whole entry): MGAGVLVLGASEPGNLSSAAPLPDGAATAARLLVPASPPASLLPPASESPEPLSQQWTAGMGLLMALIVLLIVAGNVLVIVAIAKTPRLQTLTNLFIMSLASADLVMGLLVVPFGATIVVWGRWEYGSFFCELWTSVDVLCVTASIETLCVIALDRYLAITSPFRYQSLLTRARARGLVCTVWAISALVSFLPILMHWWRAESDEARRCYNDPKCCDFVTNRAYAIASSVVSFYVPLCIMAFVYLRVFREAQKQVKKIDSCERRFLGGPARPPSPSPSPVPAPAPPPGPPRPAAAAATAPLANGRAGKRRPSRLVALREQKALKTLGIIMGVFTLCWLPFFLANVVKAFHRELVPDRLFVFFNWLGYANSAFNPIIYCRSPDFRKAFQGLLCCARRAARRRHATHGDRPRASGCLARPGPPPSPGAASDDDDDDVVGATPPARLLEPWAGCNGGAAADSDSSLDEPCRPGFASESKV

FAP = FAP (Homo sapiens, UniProt Q12884); experiment: biochemical; conditions: read-out: Percentage inhibition (%)
Sequence of FAP (Q12884 whole entry): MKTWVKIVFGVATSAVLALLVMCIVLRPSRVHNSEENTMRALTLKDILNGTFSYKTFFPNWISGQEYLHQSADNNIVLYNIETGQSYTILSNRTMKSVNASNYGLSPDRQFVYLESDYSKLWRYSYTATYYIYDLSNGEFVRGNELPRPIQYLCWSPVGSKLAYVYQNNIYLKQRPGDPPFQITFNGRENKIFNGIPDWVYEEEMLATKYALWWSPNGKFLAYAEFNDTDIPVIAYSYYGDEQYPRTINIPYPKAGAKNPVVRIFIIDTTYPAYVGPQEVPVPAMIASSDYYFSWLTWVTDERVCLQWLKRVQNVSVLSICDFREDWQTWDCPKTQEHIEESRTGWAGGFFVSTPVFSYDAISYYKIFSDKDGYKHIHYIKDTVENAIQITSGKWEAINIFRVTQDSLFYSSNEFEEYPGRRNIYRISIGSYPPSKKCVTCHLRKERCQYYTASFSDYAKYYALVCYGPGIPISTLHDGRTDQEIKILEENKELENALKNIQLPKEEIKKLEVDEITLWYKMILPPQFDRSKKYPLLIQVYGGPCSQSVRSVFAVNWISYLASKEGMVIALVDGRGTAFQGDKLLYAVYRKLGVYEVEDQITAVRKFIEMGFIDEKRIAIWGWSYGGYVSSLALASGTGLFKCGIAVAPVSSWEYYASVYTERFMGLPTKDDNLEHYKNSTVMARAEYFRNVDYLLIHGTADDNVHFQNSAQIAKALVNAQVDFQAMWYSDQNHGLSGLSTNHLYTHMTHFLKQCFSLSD

[2] = target: T2, Ubiquitin carboxyl-terminal hydrolase 5 (Homo sapiens, UniProt P45974); experiment: biochemical; conditions: read-out: Percentage inhibition (%)
T2 sequence (P45974 1-858): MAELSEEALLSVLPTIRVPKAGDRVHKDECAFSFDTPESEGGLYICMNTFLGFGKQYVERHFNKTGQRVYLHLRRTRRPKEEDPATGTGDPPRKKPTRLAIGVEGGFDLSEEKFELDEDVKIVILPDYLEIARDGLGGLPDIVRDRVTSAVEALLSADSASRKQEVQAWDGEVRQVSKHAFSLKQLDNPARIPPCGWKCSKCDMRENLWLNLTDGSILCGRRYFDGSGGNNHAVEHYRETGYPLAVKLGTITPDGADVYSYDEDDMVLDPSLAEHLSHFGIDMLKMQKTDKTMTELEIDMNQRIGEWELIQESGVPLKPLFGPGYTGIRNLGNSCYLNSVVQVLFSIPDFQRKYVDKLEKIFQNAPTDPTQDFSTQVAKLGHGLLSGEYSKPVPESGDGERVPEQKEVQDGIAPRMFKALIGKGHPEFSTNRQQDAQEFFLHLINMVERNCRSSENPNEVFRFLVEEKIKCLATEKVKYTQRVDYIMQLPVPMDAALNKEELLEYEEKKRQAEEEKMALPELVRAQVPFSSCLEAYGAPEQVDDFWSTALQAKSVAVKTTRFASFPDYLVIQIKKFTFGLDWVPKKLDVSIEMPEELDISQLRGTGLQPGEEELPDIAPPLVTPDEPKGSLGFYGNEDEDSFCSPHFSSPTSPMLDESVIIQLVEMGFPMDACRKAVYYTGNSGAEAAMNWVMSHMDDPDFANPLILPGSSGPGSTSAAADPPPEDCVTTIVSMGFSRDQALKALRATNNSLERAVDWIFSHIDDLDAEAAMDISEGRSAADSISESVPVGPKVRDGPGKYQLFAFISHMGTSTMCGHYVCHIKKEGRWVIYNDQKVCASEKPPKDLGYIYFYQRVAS

[3] = system: serine protease NS3 (a.a. 3-181) from Hepatitis C virus genotype 1a (mutant D168V)
CB2 (h) = CB2 (h) (Homo sapiens, UniProt P34972); experiment: biochemical; conditions: read-out: % Inhibition of Specific Binding
Sequence of CB2 (h) (P34972 whole entry): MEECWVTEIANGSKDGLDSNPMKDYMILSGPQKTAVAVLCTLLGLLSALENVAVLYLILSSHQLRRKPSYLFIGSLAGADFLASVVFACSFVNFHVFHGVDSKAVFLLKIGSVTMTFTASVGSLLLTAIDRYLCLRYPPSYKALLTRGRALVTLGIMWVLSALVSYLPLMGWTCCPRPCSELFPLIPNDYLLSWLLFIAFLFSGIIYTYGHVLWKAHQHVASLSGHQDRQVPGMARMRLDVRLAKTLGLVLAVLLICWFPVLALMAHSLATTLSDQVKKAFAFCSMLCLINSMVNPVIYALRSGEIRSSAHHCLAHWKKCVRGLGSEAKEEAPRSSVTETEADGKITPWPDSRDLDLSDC

KV channel = conditions: 10 μM
Caspase-7 = target: T3, Caspase-7 (Homo sapiens, UniProt P55210); experiment: biochemical; conditions: read-out: Percentage inhibition (%)
T3 sequence (P55210 24-198 limits assumed): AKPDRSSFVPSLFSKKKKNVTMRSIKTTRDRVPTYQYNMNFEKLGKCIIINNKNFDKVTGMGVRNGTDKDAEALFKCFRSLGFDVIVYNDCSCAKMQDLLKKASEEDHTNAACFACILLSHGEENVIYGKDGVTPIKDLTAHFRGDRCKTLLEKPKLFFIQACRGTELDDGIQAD
T3 sequence (P55210 207-303 limits assumed): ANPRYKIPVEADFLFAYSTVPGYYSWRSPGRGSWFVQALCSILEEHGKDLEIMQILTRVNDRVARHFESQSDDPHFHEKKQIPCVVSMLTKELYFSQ

Matrix metalloprotease 2 = target: T4, Matrix metalloprotease 2 (Homo sapiens, UniProt P08253); experiment: biochemical; conditions: read-out: Percentage inhibition (%)
T4 sequence (P08253 110-660): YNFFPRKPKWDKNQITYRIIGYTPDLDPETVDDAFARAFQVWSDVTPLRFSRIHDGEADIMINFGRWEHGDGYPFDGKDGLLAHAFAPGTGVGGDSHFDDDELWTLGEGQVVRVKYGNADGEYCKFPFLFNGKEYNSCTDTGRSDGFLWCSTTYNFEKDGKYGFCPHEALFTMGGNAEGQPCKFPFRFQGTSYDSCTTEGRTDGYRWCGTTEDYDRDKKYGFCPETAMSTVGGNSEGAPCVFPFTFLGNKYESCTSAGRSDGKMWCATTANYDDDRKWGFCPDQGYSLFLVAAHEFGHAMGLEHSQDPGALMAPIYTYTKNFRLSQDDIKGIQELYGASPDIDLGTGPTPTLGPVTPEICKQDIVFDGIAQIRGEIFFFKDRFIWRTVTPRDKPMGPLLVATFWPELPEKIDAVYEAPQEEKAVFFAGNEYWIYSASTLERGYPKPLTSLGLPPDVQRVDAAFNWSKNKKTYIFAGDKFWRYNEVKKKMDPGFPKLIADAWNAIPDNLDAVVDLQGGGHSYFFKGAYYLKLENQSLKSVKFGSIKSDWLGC

M1 (h) = M1 (h) (Homo sapiens, UniProt P11229); experiment: biochemical; conditions: read-out: % Inhibition of Specific Binding
Sequence of M1 (h) (P11229 whole entry): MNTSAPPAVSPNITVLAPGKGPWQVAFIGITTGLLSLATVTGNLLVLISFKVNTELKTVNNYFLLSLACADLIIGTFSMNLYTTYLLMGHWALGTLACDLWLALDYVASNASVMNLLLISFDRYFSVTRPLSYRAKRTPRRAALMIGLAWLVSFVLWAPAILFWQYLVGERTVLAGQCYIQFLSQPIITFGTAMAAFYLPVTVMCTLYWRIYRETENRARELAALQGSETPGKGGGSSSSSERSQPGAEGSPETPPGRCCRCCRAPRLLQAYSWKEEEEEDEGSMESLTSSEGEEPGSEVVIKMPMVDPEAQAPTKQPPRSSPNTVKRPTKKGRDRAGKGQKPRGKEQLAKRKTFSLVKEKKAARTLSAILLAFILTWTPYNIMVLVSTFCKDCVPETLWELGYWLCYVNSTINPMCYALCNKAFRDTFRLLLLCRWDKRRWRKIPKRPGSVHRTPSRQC

Structure (SMILES)	inhibition at 10 µM (PDE4D2 (h))	inhibition at 1 µM (Cathepsin V)	inhibition at 10 µM (Cathepsin V)	Percentage inhibition (%) ([1]; 1 μM)	Percentage inhibition (%) ([1]; 10 μM)	inhibition at 1 µM (Renin)	inhibition at 10 µM (Renin)	inhibition at 10 µM (Lck kinase (h))	inhibition at 10 µM (beta 1 (h))	inhibition at 1 µM (FAP)	inhibition at 10 µM (FAP)	inhibition at 1 µM [2]	inhibition at 10 µM [2]	Percentage inhibition (%) ([3]; 1 μM)	Percentage inhibition (%) ([3]; 10 μM)	inhibition at 10 µM (CB2 (h))	% Inhibition of Specific Binding (KV channel)	inhibition at 1 µM (Caspase-7)	inhibition at 10 µM (Caspase-7)	inhibition at 1 µM (Matrix metalloprotease 2)	further results
CCCCCC(=O)N[C@H]1CSCc2cc(cc(CN3CCN(C(=O)CN4CCN(CC(=O)O)CCN(CC(=O)O)CCN(CC(=O)O)CC4)CC3)c2)CSC[C@@H](C(=O)N[C@@H](CC(=O)O)C(N)=O)NC(=O)[C@H](Cc2ccccc2)NC(=O)[C@H](CCC(N)=O)NC(=O)[C@H]([C@@H](C)O)NC(=O)[C@@H]2CCCN2C(=O)[C@@H]2CCCN2C1=O [Compound 3BP-3407, Hex-[Cys(tMeBn(DOTA-PP))-Pro-Pro-Thr-Gln-Phe-Cys]-Asp-NH2] (Hexanoyl-CPPTQFCD-NH2; linker 1-7 via X1)	-5%	1%	-18%	1%	−6%	-1%	3%	10%	4%	98%	99%	3%	46%	1%	−68%	2%	−5%	-3%	-3%	3%	inhibition at 10 µM (Matrix metalloprotease 2): 3%; inhibition at 10 µM (M1 (h)): 6%
CCCCCC(=O)N[C@H]1CSCc2cc(CSCCNC(=O)CN3CCN(CC(=O)O)CCN(CC(=O)O)CCN(CC(=O)O)CC3)cc(c2)CSC[C@@H](C(=O)O)NC(=O)[C@H](Cc2ccccc2)NC(=O)[C@H](CCC(N)=O)NC(=O)[C@H]([C@@H](C)O)NC(=O)[C@@H]2CCCN2C(=O)[C@@H]2CCCN2C1=O [Compound 3BP-3554, Hex-[Cys(tMeBn(DOTA-AET))-Pro-Pro-Thr-Gln-Phe-Cys]-OH]	-4%	-1%	-1%	−2%	−17%	0%	-1%	-4%	-13%	97%	99%	-4%	-2%	−39%	−372%	-5%	4%	-1%	-7%	-1%	inhibition at 10 µM (Matrix metalloprotease 2): -2%; inhibition at 10 µM (M1 (h)): 8%
